Earlier results, collected in patent US20120083772A1, “CORNEAL TREATMENT SYSTEM AND METHOD” (CURVERIGHT LLC, priority 2010, published 2012).

System: living cells

Which “concentration that can stop the proliferation of living cells” value does the source give for `OO` [hydrogen peroxide] here?
The value was 1000 nM.
